# Reference: patent publication EP0173480A2, “The antiviral use of phyllanthostatins” (priority 1984, dated 1986)
# “Also recorded” adds a separate entry of the source. Where two headings read alike, the source gives them in different places.
# Assays:
# HA-1 = assay: Cell culture antiviral activity, agar-well zones of cytotoxicity / plaque inhibition; details: 50 pg of test compound (so in the source); for zone of cytotoxicity: first figure of the cell; for zone of antiviral activity (viral plaque inhibition): second figure of the cell
# [1] = system: herpes simplex virus type 2 (HSV-2, MS); assay: Inhibition of virus replication, virus yield by plaque method; type: cell-based; details: for ED90 MS: HSV-2 in Vero cells, drug concentration reducing virus titers by 90%
# PR-8 = details: 50 pg of test compound (so in the source); for zone of cytotoxicity: first figure of the cell; for zone of antiviral activity (viral plaque inhibition): second figure of the cell
# HSV-2 = assay: Cell culture antiviral activity, agar-well zones of cytotoxicity / plaque inhibition; details: second figure of the cell, 50 pg of test compound (so in the source)
# Vacc. = details: 50 pg of test compound (so in the source); for zone of cytotoxicity: first figure of the cell; for zone of antiviral activity (viral plaque inhibition): second figure of the cell
# [2] = system: Herpes Simplex virus type 2 (HSV-2, strain 35D); assay: Genital HSV-2 infection of female mice, virus titers in vaginal secretions; type: in vivo; details: for Mean virus titer in swabs of mice which shed virus / Nv/Nt, swabs with virus/total swabs: 8.0 x 10^4 PFU;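 as to Mean virus titer in swabs of mice which shed virus: titer expressed as log PFU per ml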
# E.R. = details: 50 pg of test compound (so in the source); for zone of cytotoxicity: first figure of the cell; for zone of antiviral activity (viral plaque inhibition): second figure of the cell
# [3] = system: coxsackie B3 virus (Nancy Strain); assay: Inhibition of virus replication, virus yield in Vero cells; type: cell-based
# [4] = system: Herpes Simplex virus type 2 (HSV-2, strain 35D); assay: Genital HSV-2 infection of female mice, intravaginal treatment, survival; type: in vivo; details: for mice survived (of 14): study of Table 3; for %S (percent survivors) / MDD (mean day of death): N 14; for protection of mice from lethal genital HSV-2 infection, summary in words: intravaginally from one hour after inoculation, 3 times daily
# [5] = system: VSV (vesicular stomatitis virus); type: cell-based; parameters: ED90 VSV: unit not given beside the values; details: Vero cells
# Coe = assay: Cell culture antiviral activity, agar-well zones of cytotoxicity / plaque inhibition; details: second figure of the cell, 50 pg of test compound (so in the source)
# HSV-1 = assay: as above; details: second figure of the cell, 50 pg of test compound (so in the source)
# coxsackie A21 = type: cell-based; parameters: ED90 Col: unit not given beside the values; details: for coxsackie A21 virus yield: ML cells
# [6] = system: herpes simplex virus type 1 (HSV-1, McIntyre); assay: Inhibition of virus replication, virus yield by plaque method; type: cell-based; parameters: ED90 McIntyre: unit not given here; details: for ED90 McIntyre: HSV-1 in Vero cells, drug concentration reducing virus titers by 90%, unit only in b38; for HSV-1 virus yield: Vero cells
# Vero cells = details: monkey
# [7] = day 1 after HSV-2 inoc., 0.5 mg/ml
# [8] = day 1 after HSV-2 inoc., 1 mg/ml
# [9] = day 2 after HSV-2 inoc., 0.5 mg/ml
# [10] = day 2 after HSV-2 inoc., 1 mg/ml
# [11] = day 3 after HSV-2 inoc., 0.5 mg/ml
# [12] = day 3 after HSV-2 inoc., 1 mg/ml
# [13] = day 4 after HSV-2 inoc., 0.5 mg/ml
# [14] = day 4 after HSV-2 inoc., 1 mg/ml
# [15] = day 7 after HSV-2 inoc., 0.5 mg/ml
# [16] = day 7 after HSV-2 inoc., 1 mg/ml
# [17] = 8.0 x 10^3 PFU/0.1 ml, mg/ml cell empty (1 mg/ml in upper section)
# [18] = 8.0 x 10^4 PFU/0.1 ml, 1 mg/ml intravaginally
# [19] = second study, 8.0 x 10^4 PFU in 0.1 ml, 0.5 mg/ml
# [20] = higher drug concentrations (5 and 50 µg/ml) compared with 0.5
compound,measurement,setting,value
Phyllanthostatin I,zone of cytotoxicity,HA-1,4
same,zone of antiviral activity (viral plaque inhibition),HA-1,0
same,ED90 MS,[1],1.64 µg per ml
same,ED90 MS,[1]; 1440 min,1.164 µg per ml
same,HSV-2 virus yield,"[1]; Vero cells, 0.5 µg/ml",most susceptible virus to inhibition
same,HSV-2 virus yield,"[1]; Vero cells, higher drug concentrations (5 and 50 µg/ml) compared with 0.5",further reductions in all virus yields
same,zone of cytotoxicity,PR-8,2/2 (2 - 20-30 mm)
same,zone of antiviral activity (viral plaque inhibition),PR-8,2/2 (2 - 20-30 mm)
same,zone of antiviral activity (viral plaque inhibition),HSV-2,4/4
same,zone of cytotoxicity,Vacc.,4/4
same,zone of antiviral activity (viral plaque inhibition),Vacc.,4/4
same,mean titers compared with controls,"[2]; 0.5 mg/ml, day 4",nearly the same as that in the controls
same,mean virus titers less than placebo treated group,"[2]; 0.5 mg/ml, days 2 and 3",about 0.7 logs
same,mean titer less than the placebo,"[2]; 1 mg/ml, day 1",greater than 2 logs
same,mean virus titers lower than placebo treated controls,"[2]; 1 mg/ml, days 2 through 4",about 0.5 logs
same,Mean virus titer in swabs of mice which shed virus,[2]; [7],2.69 log PFU/ml
same,"Nv/Nt, swabs with virus/total swabs",[2]; [7],9/10
same,Mean virus titer in swabs of mice which shed virus,[2]; [8],1.67 log PFU/ml
same,"Nv/Nt, swabs with virus/total swabs",[2]; [8],4
same,"Nv/Nt, swabs with virus/total swabs","[2]; day 1 after HSV-2 inoc., 1 mg/ml, listed as Phyllanostatin I",6/10
same,Mean virus titer in swabs of mice which shed virus,[2]; [9],3.76 log PFU/ml
same,"Nv/Nt, swabs with virus/total swabs",[2]; [9],10/10
same,Mean virus titer in swabs of mice which shed virus,[2]; [10],3.83 log PFU/ml
same,"Nv/Nt, swabs with virus/total swabs",[2]; [10],8/10
same,Mean virus titer in swabs of mice which shed virus,[2]; [11],3.71 log PFU/ml
same,"Nv/Nt, swabs with virus/total swabs",[2]; [11],10/10
same,Mean virus titer in swabs of mice which shed virus,[2]; [12],3.93 log PFU/ml
same,"Nv/Nt, swabs with virus/total swabs",[2]; [12],8/10
same,Mean virus titer in swabs of mice which shed virus,[2]; [13],4.13 log PFU/ml
same,"Nv/Nt, swabs with virus/total swabs",[2]; [13],10/10
same,Mean virus titer in swabs of mice which shed virus,[2]; [14],3.63 log PFU/ml
same,"Nv/Nt, swabs with virus/total swabs",[2]; [14],8/10
same,Mean virus titer in swabs of mice which shed virus,[2]; [15],(3.98) log PFU/ml
same,"Nv/Nt, swabs with virus/total swabs",[2]; [15],1/1
same,Mean virus titer in swabs of mice which shed virus,[2]; [16],3.47 log PFU/ml
same,"Nv/Nt, swabs with virus/total swabs",[2]; [16],3/5
same,zone of cytotoxicity,E.R.,2 (2 - 20-30 mm)
same,zone of antiviral activity (viral plaque inhibition),E.R.,4
same,coxsackie B3 virus yield,[3]; 5 µg per ml,inhibitory for both viruses
same,coxsackie B3 virus yield,"[3]; below 5 µg per ml (i.e., 0.5 or 1)",unaffected
same,mice survived (of 14),[4]; 8.0 x 10^3 PFU in 0.1 ml,10
same,%S (percent survivors),[4]; [17],71%
same,MDD (mean day of death),[4]; [17],11.8 days
same,mice survived (of 14),[4]; 8.0 x 10^4 PFU in 0.1 ml,4
same,%S (percent survivors),[4]; [18],29%
same,MDD (mean day of death),[4]; [18],7.4 days
same,"protection of mice from lethal genital HSV-2 infection, summary in words",[4],protected mice from lethal infection when the virus inoculum was reduced
same,MDD,[4]; [19],the same as the saline and DMSO saline treated group
same,mice survived,[4]; [19],all of the animals succumed to infection
same,death of mice,"[4]; second study, 8.0 x 10^4 PFU in 0.1 ml, 1 mg/ml",80%
same,VSV virus yield,[5]; [20],further reductions in all virus yields
same,zone of antiviral activity (viral plaque inhibition),Coe,0
same,zone of antiviral activity (viral plaque inhibition),HSV-1,4/4
same,coxsackie A21 virus yield,coxsackie A21; 5 µg/ml (below 5 µg per ml),inhibitory for both viruses
same,coxsackie A21 virus yield,"coxsackie A21; below 5 µg per ml (i.e., 0.5 or 1), study of b36",reduced titers of coxsackie A21
same,coxsackie A21 virus yield,coxsackie A21; [20],further reductions in all virus yields
same,ED90 McIntyre,[6]; listed as Phyllanthostatin,2.3743
same,ED90 McIntyre,[6]; listed as phyllanthostatin I,2.37
same,HSV-1 virus yield,[6]; [20],further reductions in all virus yields
Phyllanthostatin 3,HSV-2 virus yield,"[1]; Vero cells, 50 µg/ml",slight reduction in yields
same,HSV-1 virus yield,[6]; 50 µg/ml,slight reduction in yields
COC(=O)C1CCC2C(C1)OC1(CC(OC(=O)/C=C/c3ccccc3)C(C)CO1)C21CO1 (stereo not shown) [Phyllanthocin],zone of cytotoxicity,HA-1,0/0
same,zone of antiviral activity (viral plaque inhibition),HA-1,0/0
same,ED90 MS,[1],7.99 µg per ml
same,ED90 MS,[1]; 1440 min,7.9939 µg per ml
same,HSV-2 yields reduced by,"[1]; Vero cells, 5 µg per ml",greater than 1 log
same,HSV-2 virus yield,"[1]; Vero cells, 5 µg/ml",reductions in yields; also recorded: inhibitory
same,HSV-2 virus yield,"[1]; Vero cells, 50 µg/ml",reduced yields of all viruses; also recorded: reduction in titers of all viruses
same,zone of cytotoxicity,PR-8,2 (2 - 20-30 mm)
same,zone of antiviral activity (viral plaque inhibition),PR-8,0
same,zone of antiviral activity (viral plaque inhibition),HSV-2,2 (2 - 20-30 mm)
same,zone of cytotoxicity,Vacc.,0
same,zone of antiviral activity (viral plaque inhibition),Vacc.,4
same,zone of cytotoxicity,E.R.,0/0
same,zone of antiviral activity (viral plaque inhibition),E.R.,0/0
same,coxsackie B3 virus yield,[3]; 5 µg per ml,inhibitory for coxsackie B3 replication
same,times less cytotoxic than phyllanthoside or phyllanthostatin I,Vero cells,2-5
same,ID50 Vero 72 hrs.,"Vero cells; vero cells, 72 h",5.91 mg per ml
same,mice survived (of 14),[4]; 8.0 x 10^3 PFU in 0.1 ml,four
same,%S (percent survivors),[4]; [17],29%
same,MDD (mean day of death),[4]; [17],8.5 days
same,mice survived (of 14),[4]; 8.0 x 10^4 PFU in 0.1 ml,did not protect mice from lethal infection
same,%S (percent survivors),[4]; [18],14%
same,MDD (mean day of death),[4]; [18],8.0 days
same,"protection of mice from lethal genital HSV-2 infection, summary in words",[4],devoid of antiviral activity
same,VSV virus yield,[5]; 5 µg/ml (below 5 µg per ml),non-inhibitory; also recorded: not affected; also recorded: not for VSV or Coxsackie A-21
same,VSV virus yield,[5]; 50 µg/ml,reduced yields of all viruses; also recorded: reduction in titers of all viruses
same,ED90 VSV,"[5]; reduces virus yield by 90%, unit not given, NS - not significant",8.668
same,zone of antiviral activity (viral plaque inhibition),Coe,0/0
same,zone of antiviral activity (viral plaque inhibition),HSV-1,3
same,coxsackie A21 virus yield,coxsackie A21; 5 µg/ml (below 5 µg per ml),non-inhibitory; also recorded: did not reduce the yields; also recorded: not affected; also recorded: not for VSV or Coxsackie A-21
same,coxsackie A21 virus yield,coxsackie A21; 50 µg/ml,reduced yields of all viruses; also recorded: reduction in titers of all viruses
same,ED90 Col,"coxsackie A21; […], unit not given, NS - not significant",61.7506
same,ED90 McIntyre,[6],7.1380
same,ED90 McIntyre,[6]; listed as phyllanthocin,7.14
same,HSV-1 virus yield,[6]; 5 µg/ml,only modestly inhibitory; also recorded: reductions in yields
same,HSV-1 virus yield,[6]; 50 µg/ml,reduced yields of all viruses; also recorded: reduction in titers of all viruses
